Results: PubChem BioAssay AID248 (DTP/NCI, 2004)
Toxic doses and inconclusive results are not listed. Cut-off read from the data, not from the text of the source: active = T/C of 150% or more; inactive = T/C below 125%.

System: L1210 leukemia ip in BDF1 mice, survival T/C
Assay: NCI In Vivo Anticancer Drug Screen. Data for tumor model L1210 Leukemia (intraperitoneal) in B6D2F1 (BDF1) mice
Conditions: endpoint: mean survival time, higher = longer survival
Summary of the method: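 Tumor cells were implanted, animals were treated, and survival was followed. The result divides the treated measurement by the vehicle-control measurement.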

[1] = dose: 100.0 mg/kg/injection, schedule: Q04DX002 (ip), vehicle: Klucel (hydroxypropylcellulose) (HPC)
[2] = dose: 100.0 mg/kg/injection, schedule: Q01DX001 (ip), vehicle: Klucel (hydroxypropylcellulose) (HPC)
[3] = dose: 200.0 mg/kg/injection, schedule: Q01DX001 (ip), vehicle: Klucel (hydroxypropylcellulose) (HPC)
[4] = dose: 100.0 mg/kg/injection, schedule: Q01DX009 (ip), vehicle: saline with Tween-80
[5] = dose: 100.0 mg/kg/injection, schedule: Q04DX003 (ip), vehicle: saline with Tween-80
[6] = dose: 200.0 mg/kg/injection, schedule: Q01DX009 (ip), vehicle: saline with Tween-80
[7] = dose: 200.0 mg/kg/injection, schedule: Q04DX003 (ip), vehicle: saline with Tween-80
[8] = dose: 400.0 mg/kg/injection, schedule: Q01DX009 (ip), vehicle: saline with Tween-80
[9] = dose: 400.0 mg/kg/injection, schedule: Q04DX003 (ip), vehicle: saline with Tween-80
[10] = dose: 200.0 mg/kg/injection, schedule: Q04DX002 (ip), vehicle: Klucel (hydroxypropylcellulose) (HPC)
[11] = dose: 400.0 mg/kg/injection, schedule: Q04DX002 (ip), vehicle: Klucel (hydroxypropylcellulose) (HPC)
[12] = dose: 100.0 mg/kg/injection, schedule: Q01DX001 (ip), vehicle: saline
[13] = dose: 200.0 mg/kg/injection, schedule: Q01DX001 (ip), vehicle: saline
[14] = dose: 400.0 mg/kg/injection, schedule: Q01DX001 (ip), vehicle: saline
[15] = dose: 100.0 mg/kg/injection, schedule: Q01DX009 (ip), vehicle: Klucel (hydroxypropylcellulose) (HPC)
[16] = dose: 100.0 mg/kg/injection, schedule: Q04DX003 (ip), vehicle: Klucel (hydroxypropylcellulose) (HPC)
[17] = dose: 200.0 mg/kg/injection, schedule: Q01DX009 (ip), vehicle: Klucel (hydroxypropylcellulose) (HPC)
[18] = dose: 200.0 mg/kg/injection, schedule: Q04DX003 (ip), vehicle: Klucel (hydroxypropylcellulose) (HPC)
[19] = dose: 50.0 mg/kg/injection, schedule: Q01DX009 (ip), vehicle: saline with Tween-80
[20] = dose: 400.0 mg/kg/injection, schedule: Q04DX003 (ip), vehicle: Klucel (hydroxypropylcellulose) (HPC)

Measured: T/C

Cn1cnccc1=S
inactive: dose: 25.0 mg/kg/injection, schedule: Q01DX001 (ip), vehicle: saline 96 % of control | dose: 50.0 mg/kg/injection, schedule: Q01DX001 (ip), vehicle: saline 108 % of control

O=S(=O)(CCCl)c1ccc2ccccc2c1
inactive: dose: 25.0 mg/kg/injection, schedule: Q04DX002 (ip), vehicle: Klucel (hydroxypropylcellulose) (HPC) 100 % of control | dose: 50.0 mg/kg/injection, schedule: Q04DX002 (ip), vehicle: Klucel (hydroxypropylcellulose) (HPC) 104 % of control | [1] 96 % of control

CCOc1ccc(-n2c(=O)c(N=Nc3ccc(Br)cc3)c(O)n(-c3ccc(C)cc3)c2=S)cc1
inactive: dose: 50.0 mg/kg/injection, schedule: Q01DX001 (ip), vehicle: Klucel (hydroxypropylcellulose) (HPC) 95 % of control | [2] 101 % of control | [3] 101 % of control

Cc1cc(N(CCCOS(C)(=O)=O)CCCOS(C)(=O)=O)ccc1C=Nc1cc(Br)c(O)c(Br)c1
inactive: [4] 94 % of control | [5] 92 % of control | [6] 94 % of control | [7] 90 % of control | [8] 89 % of control | [9] 94 % of control

O=C(COc1ccc(Cl)cc1C(=O)O)Nc1cccc(NC(=O)Nc2cc(S(=O)(=O)F)ccc2Cl)c1
inactive: [2] 94 % of control | [3] 88 % of control | dose: 400.0 mg/kg/injection, schedule: Q01DX001 (ip), vehicle: Klucel (hydroxypropylcellulose) (HPC) 91 % of control

S=C(Nc1ccc(Cl)cc1)Nc1ccc(-c2ccc(NC(=S)Nc3ccc(Cl)cc3)cc2)cc1
inactive: [1] 107 % of control | [10] 100 % of control | [11] 89 % of control

COc1cc(NC(=O)Nc2cc([N+](=O)[O-])ccc2C)c(OC)cc1Cl
inactive: [1] 106 % of control | [10] 97 % of control | [11] 95 % of control

CCS(=O)(=O)C(CCC(S(=O)(=O)CC)S(=O)(=O)CC)S(=O)(=O)CC
inactive: [12] 110 % of control | [13] 96 % of control | [14] 102 % of control

Cc1cc(Nc2ccc(N=Nc3ccc(O)c4ncccc34)cc2)nc(C)n1
inactive: [12] 102 % of control | [13] 105 % of control | [14] 103 % of control

CCOC(=O)C1CCN(C(=O)c2ccccc2)c2scc(-c3ccccc3)c2C1=O (stereo unspecified)
inactive: dose: 50.0 mg/kg/injection, schedule: Q04DX003 (ip), vehicle: saline with Tween-80 94 % of control | [5] 100 % of control | [7] 92 % of control | [9] 97 % of control

CN(C)n1cc(C#N)c(=O)[nH]c1=O
inactive: dose: 50.0 mg/kg/injection, schedule: Q01DX009 (ip), vehicle: Klucel (hydroxypropylcellulose) (HPC) 90 % of control | [15] 90 % of control | [16] 100 % of control | [17] 100 % of control | [18] 97 % of control

Nc1cccc(NC=O)c1
inactive: dose: 25.0 mg/kg/injection, schedule: Q01DX009 (ip), vehicle: saline with Tween-80 102 % of control | [19] 104 % of control

Cc1cc2c(cc1[N+](=O)[O-])OCCO2
inactive: [5] 93 % of control | [7] 89 % of control | [9] 88 % of control

CC(=O)OC1CSC1OC(C)=O (stereo unspecified)
inactive: dose: 100.0 mg/kg/injection, schedule: Q01DX001 (ip), vehicle: saline with Tween-80 95 % of control | dose: 200.0 mg/kg/injection, schedule: Q01DX001 (ip), vehicle: saline with Tween-80 93 % of control | dose: 400.0 mg/kg/injection, schedule: Q01DX001 (ip), vehicle: saline with Tween-80 98 % of control

O=[N+]([O-])c1cc([N+](=O)[O-])c(/C=C/c2ccccc2)c([N+](=O)[O-])c1/C=C/c1ccccc1
inactive: [15] 104 % of control | [16] 97 % of control | [17] 98 % of control | [18] 101 % of control | dose: 400.0 mg/kg/injection, schedule: Q01DX009 (ip), vehicle: Klucel (hydroxypropylcellulose) (HPC) 98 % of control | [20] 97 % of control

Cc1cc([N+](=O)[O-])c(Nc2ccc(F)cc2)c([N+](=O)[O-])c1
inactive: [4] 97 % of control | [5] 105 % of control | [6] 92 % of control | [7] 97 % of control | [8] 94 % of control | [9] 100 % of control

C1=Cc2cccc3c2N(C1)CCC3 (tested in a mixture with another compound)
inactive: [4] 103 % of control | [5] 109 % of control | [6] 107 % of control | [7] 93 % of control | [8] 95 % of control | [9] 98 % of control

O=C1CN(CN2CCCCC2)C(=O)CN1CN1CCCCC1
inactive: [15] 91 % of control | [16] 109 % of control | [17] 95 % of control | [18] 106 % of control | [20] 90 % of control

CCOCC(=O)CC(C)(C)C
inactive: [19] 92 % of control | [4] 92 % of control | [6] 103 % of control

CNC1(C(N)=O)CCN(Cc2ccccc2)CC1
inactive: [19] 99 % of control | [4] 94 % of control | [5] 95 % of control | [6] 90 % of control | [7] 101 % of control

NC(Cc1ccc(Cl)cc1)C(=O)O (stereo unspecified)
inactive: dose: 50.0 mg/kg/injection, schedule: Q01DX001 (ip), vehicle: water 95 % of control | dose: 100.0 mg/kg/injection, schedule: Q01DX001 (ip), vehicle: water 98 % of control | dose: 200.0 mg/kg/injection, schedule: Q01DX001 (ip), vehicle: water 93 % of control | dose: 400.0 mg/kg/injection, schedule: Q01DX001 (ip), vehicle: water 93 % of control | dose: 800.0 mg/kg/injection, schedule: Q01DX001 (ip), vehicle: water 90 % of control | dose: 1200.0 mg/kg/injection, schedule: Q01DX001 (ip), vehicle: water 96 % of control | dose: 1600.0 mg/kg/injection, schedule: Q01DX001 (ip), vehicle: water 96 % of control | dose: 2000.0 mg/kg/injection, schedule: Q01DX001 (ip), vehicle: water 93 % of control

O=[N+]([O-])c1cccc2c(Br)cccc12
inactive: dose: 100.0 mg/kg/injection, schedule: Q01DX009 (ip), vehicle: saline 106 % of control | dose: 100.0 mg/kg/injection, schedule: Q04DX003 (ip), vehicle: saline 103 % of control | dose: 200.0 mg/kg/injection, schedule: Q01DX009 (ip), vehicle: saline 95 % of control | dose: 200.0 mg/kg/injection, schedule: Q04DX003 (ip), vehicle: saline 100 % of control | dose: 400.0 mg/kg/injection, schedule: Q01DX009 (ip), vehicle: saline 95 % of control | dose: 400.0 mg/kg/injection, schedule: Q04DX003 (ip), vehicle: saline 106 % of control

Cc1ccc(C(C)C)cc1NC(=O)NCCCl
inactive: dose: 20.0 mg/kg/injection, schedule: Q04DX003 (ip), vehicle: Klucel (hydroxypropylcellulose) (HPC) 94 % of control | dose: 40.0 mg/kg/injection, schedule: Q04DX003 (ip), vehicle: Klucel (hydroxypropylcellulose) (HPC) 97 % of control | dose: 80.0 mg/kg/injection, schedule: Q04DX003 (ip), vehicle: Klucel (hydroxypropylcellulose) (HPC) 102 % of control | [16] 112 % of control | [18] 112 % of control
